Data on two molecules can be found in patent publication US20200239530A1, “COMPOUNDS AND METHODS OF MODULATING PROTEIN DEGRADATION” (Vividion Therapeutics, Inc., priority 2017, published 2020).

One assay concerns the target T1, HMOX2 Heme oxygenase 2 (Homo sapiens, UniProt P30519).
T1 construct: Cells were resuspended in cold PBS on ice and sonicated with a probe sonicator to achieve lysis; endogenous in cells
T1 sequence (P30519 1-316): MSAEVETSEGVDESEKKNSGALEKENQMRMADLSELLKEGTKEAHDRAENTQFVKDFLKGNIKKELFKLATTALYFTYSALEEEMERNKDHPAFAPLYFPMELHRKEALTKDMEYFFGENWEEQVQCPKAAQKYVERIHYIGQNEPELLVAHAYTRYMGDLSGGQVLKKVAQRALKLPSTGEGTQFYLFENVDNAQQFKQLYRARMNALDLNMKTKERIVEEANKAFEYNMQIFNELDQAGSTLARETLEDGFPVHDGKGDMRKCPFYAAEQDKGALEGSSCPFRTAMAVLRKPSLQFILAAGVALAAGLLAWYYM
Briefly: Cysteine liganding, probe competition. It is filed as binding. As to conditions: for Liganded: HMOX2 Res# 265, uniprot P30519. The method in brief:
(§1)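 Lysates from probe-sonicated cells in PBS (5 mg/ml proteome) were exposed to compound for 1 hr at 25° C, then labelled with desthiobiotin iodoacetamide probe (10 mM stock) for 1 hr at 25° C. Probe-tagged peptides were streptavidin-enriched after trypsin digestion.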

Assay [1] has as its target T2, VPS18 Vacuolar protein sorting-associated protein 18 homolog (Homo sapiens, UniProt Q9P253).
T2 construct: Cells were resuspended in cold PBS on ice and sonicated with a probe sonicator to achieve lysis; endogenous in cells
T2 sequence (Q9P253 1-973): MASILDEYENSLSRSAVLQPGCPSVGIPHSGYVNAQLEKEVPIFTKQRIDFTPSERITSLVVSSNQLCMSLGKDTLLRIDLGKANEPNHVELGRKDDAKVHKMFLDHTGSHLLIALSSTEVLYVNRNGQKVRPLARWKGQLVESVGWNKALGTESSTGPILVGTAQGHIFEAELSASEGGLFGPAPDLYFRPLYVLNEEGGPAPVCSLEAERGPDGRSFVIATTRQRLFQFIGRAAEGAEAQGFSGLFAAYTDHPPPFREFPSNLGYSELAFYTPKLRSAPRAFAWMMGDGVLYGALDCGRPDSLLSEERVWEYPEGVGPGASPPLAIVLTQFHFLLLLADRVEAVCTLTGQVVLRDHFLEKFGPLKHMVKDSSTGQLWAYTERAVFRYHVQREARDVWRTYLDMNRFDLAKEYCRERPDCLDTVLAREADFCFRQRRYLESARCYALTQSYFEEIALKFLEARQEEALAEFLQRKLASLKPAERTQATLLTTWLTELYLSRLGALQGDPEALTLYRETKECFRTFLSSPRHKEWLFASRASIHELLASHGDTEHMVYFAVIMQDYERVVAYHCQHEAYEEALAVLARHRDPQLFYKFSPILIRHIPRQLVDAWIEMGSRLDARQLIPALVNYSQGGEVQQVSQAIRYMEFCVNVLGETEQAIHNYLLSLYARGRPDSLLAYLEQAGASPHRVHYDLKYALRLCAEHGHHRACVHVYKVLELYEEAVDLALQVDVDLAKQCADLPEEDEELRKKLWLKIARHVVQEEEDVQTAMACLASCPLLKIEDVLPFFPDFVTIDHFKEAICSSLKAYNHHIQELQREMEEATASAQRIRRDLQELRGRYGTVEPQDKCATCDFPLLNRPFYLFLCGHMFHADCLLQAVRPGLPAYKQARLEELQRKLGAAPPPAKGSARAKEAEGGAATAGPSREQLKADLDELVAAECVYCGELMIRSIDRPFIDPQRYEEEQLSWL
Briefly: Cysteine liganding, probe competition. It is filed as binding. Put shortly: as §1

Take `O=C(CCl)Nc1cc(C(F)(F)F)cc(C(F)(F)F)c1` [KBO3]: the Liganded result at HMOX2 Heme oxygenase 2 is given as “YES”. Moreover, at HMOX2 Heme oxygenase 2 (uniprot P30519), the “100 Max” value is recorded as 93.81, the 100 ave turned out to be 81.435 and the 500 ave stood at 88.6. Besides, the “500 Max” value on HMOX2 Heme oxygenase 2 (uniprot P30519, in % (unit assumed)) is listed as 98.54. In assay [1] (uniprot Q9P253), the “100 Max” value is 19.6, the 100 ave is 16.2, the “500 Max” value was 47.0 and the 500 ave is on record as 47.0.

For `COc1ccc2c(c1)CCCN2C(=O)CCl` [KB02], the Liganded result is “YES” at HMOX2 Heme oxygenase 2 and “YES” in assay [1] (VPS18 Res# 806, uniprot Q9P253).
